{
  "source": "patent EP4578444A1",
  "about": "“APPLICATION OF BETA-CARYOPHYLLENE FOR TARGETED EPIGENETIC REGULATION AND POTENTIAL PREVENTION OF WATER-OSMOTIC CONDITIONS OF THE MUCOUS MEMBRANES AND EPITHELIA” (SkyLab AG, priority 2023, dated 2025)",
  "key": {"[1]": {"assay": "MTT cytotoxicity / cell viability of keratinocytes", "format": "cell-based", "settings": "keratinocytes, throughout the selected concentration range (0.01-0.3 wt.%), threshold value of 70%, read-out: viability of skin and epithelial keratinocytes", "protocol": "(§1) Beta-caryophyllene was studied for cytotoxicity and assessed for viability of skin and mucous membrane keratinocytes to determine the maximum permissible concentration for external and local application.\n(§2) Cell viability was determined colorimetrically using MTT stain (Sigma Chemical, St. Louis, Mo.). The preparation was treated for the test in dimethylsulphoxide culture medium and added to a 96-well plate at serial dilutions ranging from 1.000 to 0.0032 mg/mL using a dilution factor of 3.16. Pre-culture was carried out for 48 hours before the test. Then MTT was added to the culture at a concentration of 0.75 mg/mL (100 µl/well) and incubated for another 4 hours. The contents of the well were removed, and 100 µl of isopropanol was added to solubilize the formed formazan crystals. Absorbance was determined in each well at 570 nm using a Multiskan GO monochromator (Thermo Scientific, Finland). Cell viability was expressed as a percentage and calculated by the equation: % Viable cells = (Absorbance of evaluated product incubated cells)/(Control absorbance) × 100 [formula]\n(§3) Three biological replicates were made. Statistical data processing was carried out to calculate the mean, standard deviation, and trend for each biological replicate. For the statistical evaluation ANOVA test was used allowing the measurement of variation of the results, comparing the data between all the groups. […]"}, "[2]": {"system": "skin and mucous membrane keratinocytes", "assay": "MTT cytotoxicity / cell viability of keratinocytes", "format": "cell-based", "settings": "70% cell survival", "protocol": "as §1, §2, §3"}},
  "data": [
    {"smiles": "C=C1CC/C=C(\\C)CC[C@@H]2[C@@H]1CC2(C)C", "note": "[Beta-caryophyllene]", "values": [
      {"measurement": "viability", "setting": "[1]", "result": "> 70", "unit": "%"},
      {"measurement": "EC70", "setting": "[2]", "result": 316.5, "unit": "µg/mL"}
    ]}
  ]
}
